Calls of active or inactive are those of the source. The calls are words filed in the database; no cut-off is given here.
Key:
[1] = (§1) AUC (0 to infinity) in 129/SvEvBrd x C57BL/6 hybrid mouse at 10 mg/kg, po; format: ADME, organism-based, Plasma; set-up: time infinity, dose 10 mg/kg, route oral; settings: 129/SvEvBrd x C57BL/6 hybrid, plasma
[2] = (§2) Oral bioavailability in 129/SvEvBrd x C57BL/6 hybrid mouse at 1 mg/kg, iv and 10 mg/kg, po; format: ADME, organism-based; settings: 129/SvEvBrd x C57BL/6 hybrid, in vivo
Mus musculus [3] = experiment: Induction of lymphopenia in 129/SvEvBrd x C57BL/6 hybrid mouse assessed as change in circulating lymphocyte level at 100 mg/kg, po administered as single dose after 18 hrs by complete blood count analysis relative to control; format: functional
[4] = Clearance in 129/SvEvBrd x C57BL/6 hybrid mouse at 1 mg/kg, iv; format: ADME, organism-based; set-up: dose 1 mg/kg, route intravenous; settings: in vivo
[5] = Half life in 129/SvEvBrd x C57BL/6 hybrid mouse; format: ADME, organism-based; settings: in vivo
[6] = Permeability across human Caco-2 cell membrane at 20 uM; format: ADME, cell-based; settings: read-out: permeability
[7] = Bioavailability in 129/SvEvBrd x C57BL/6 hybrid mouse at 10 mg/kg; format: ADME, organism-based; settings: in vivo
Mus musculus [8] = experiment: Induction of lymphopenia in 129/SvEvBrd x C57BL/6 hybrid mouse whole blood assessed as reduction in lymphocyte level at 100 mg/kg, po after 18 hrs by complete blood count analysis; format: functional, organism-based; set-up: dose 100 mg/kg
[9] = AUC in 129/SvEvBrd x C57BL/6 hybrid mouse at 10 mg/kg; format: ADME, organism-based; set-up: dose 10 mg/kg; settings: plasma
Mus musculus [10] = experiment: Induction of lymphopenia in 129/SvEvBrd x C57BL/6 hybrid mouse whole blood assessed as reduction in lymphocyte level at 100 mg/kg, po after 4 hrs by complete blood count analysis; format: functional, organism-based; set-up: dose 100 mg/kg
[11] = biological target: T1, Sphingosine-1-phosphate lyase 1 (Mus musculus, UniProt Q8R0X7); experiment: Inhibition of sphingosine-1-phosphate lyase in mouse spleen by scintillation counting; format: tissue-based
T1 sequence (Q8R0X7 whole entry): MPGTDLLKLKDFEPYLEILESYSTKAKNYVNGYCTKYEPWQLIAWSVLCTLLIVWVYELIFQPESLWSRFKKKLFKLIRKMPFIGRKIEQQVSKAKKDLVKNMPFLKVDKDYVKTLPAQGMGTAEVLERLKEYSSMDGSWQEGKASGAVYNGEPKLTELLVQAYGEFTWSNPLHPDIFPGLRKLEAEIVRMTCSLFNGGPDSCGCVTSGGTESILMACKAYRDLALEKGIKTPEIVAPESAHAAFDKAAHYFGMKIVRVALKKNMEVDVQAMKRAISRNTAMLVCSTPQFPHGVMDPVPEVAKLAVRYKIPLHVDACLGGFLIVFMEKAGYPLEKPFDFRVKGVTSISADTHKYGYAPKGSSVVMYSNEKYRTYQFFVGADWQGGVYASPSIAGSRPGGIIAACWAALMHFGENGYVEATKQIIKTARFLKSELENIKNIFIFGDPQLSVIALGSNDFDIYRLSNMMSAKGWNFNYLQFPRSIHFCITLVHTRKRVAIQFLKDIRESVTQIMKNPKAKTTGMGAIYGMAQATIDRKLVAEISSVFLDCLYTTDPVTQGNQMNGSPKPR

[12] = Protein binding in 129/SvEvBrd x C57BL/6 hybrid mouse plasma at 10 mg/kg; format: ADME, organism-based; set-up: dose 10 mg/kg; settings: read-out: PPB
[13] = Cmax in 129/SvEvBrd x C57BL/6 hybrid mouse at 10 mg/kg; format: ADME, organism-based; set-up: dose 10 mg/kg; settings: in vivo
Mus musculus [14] = experiment: as §1; format: ADME, organism-based, Plasma; set-up: time infinity, dose 10 mg/kg, route oral; settings: in vivo
Mus musculus [15] = experiment: as §2; format: ADME, organism-based; settings: in vivo
[16] = biological target: T2, Sphingosine-1-phosphate lyase 1 (Mus musculus) (UniProt Q8R0X7); experiment: Inhibition of sphingosine-1-phosphate lyase in mouse spleen assessed as production of [33P]phosphoethanolamine; format: tissue-based
T2 sequence (whole entry): T1 sequence (Q8R0X7 whole entry)

HepG2 = experiment: Increase in sphingosine-1-phosphate level in human HepG2 cells relative to control; format: functional
Mus musculus [17] = experiment: Induction of lymphopenia in ip dosed 129/SvEvBrd x C57BL/6 hybrid mouse whole blood assessed as reduction in lymphocyte level by complete blood count analysis after 4 hrs; format: functional, organism-based
[18] = Cmax in 129/SvEvBrd x C57BL/6 hybrid mouse at 100 mg/kg, po; format: ADME, organism-based; set-up: dose 100 mg/kg, route oral; settings: in vivo
[19] = AUC in 129/SvEvBrd x C57BL/6 hybrid mouse at 100 mg/kg, po; format: ADME, organism-based; set-up: dose 100 mg/kg, route oral; settings: plasma
Mus musculus [20] = experiment: Induction of lymphopenia in 129/SvEvBrd x C57BL/6 hybrid mouse assessed as change in circulating lymphocyte level at 30 mg/kg, po administered as single dose after 18 hrs by complete blood count analysis relative to control; format: functional
Mus musculus [21] = experiment: Increase in sphingosine-1-phosphate level in mouse spleen at 100 mg/kg, po after 18 hrs by radioreceptor binding assay relative to control; format: functional
[22] = Cmax in 129/SvEvBrd x C57BL/6 hybrid mouse; format: ADME, organism-based; settings: in vivo
[23] = Tmax in 129/SvEvBrd x C57BL/6 hybrid mouse; format: ADME, organism-based; settings: in vivo
Mus musculus [24] = experiment: Reduction in sphingosine-1-phosphate lyase activity in mouse spleen at 100 mg/kg, po after 18 hrs by radioreceptor binding assay; format: functional, organism-based; set-up: dose 100 mg/kg
[25] = Volume of distribution in 129/SvEvBrd x C57BL/6 hybrid mouse; format: ADME, organism-based; settings: in vivo

## OC[C@@H](O)[C@@H](O)[C@H](O)c1c[nH]c(-c2cscn2)n1
[1]
  AUC(0-inf): 5.8 µM·h
[2]
  bioavailability: 12%
Mus musculus [3]
  Activity: -33%
[4]
  clearance: 12.7 mL/min/kg
[5]
  half-life: 252 min

## OC[C@@H](O)[C@@H](O)[C@H](O)c1c[nH]c(-c2ncccn2)n1
[1]
  AUC(0-inf): 3 µM·h
[2]
  bioavailability: 7%
[6]
  Papp at 20 µM: 10.9 ×10⁻⁶ cm/s
Mus musculus [3]
  Activity: -26%
[4]
  clearance: 15.2 mL/min/kg
[5]
  half-life: 144 min

## CC(=O)c1nc([C@@H](O)[C@H](O)[C@H](O)CO)c(C)[nH]1
[1]
  AUC(0-inf): 10.8 µM·h
[2]
  bioavailability: 11%
[6]
  Papp at 20 µM: 9.37 ×10⁻⁶ cm/s
Mus musculus [3]
  Activity: -5%
[4]
  clearance: 7 mL/min/kg
[5]
  half-life: 372 min

## Nc1nc(N2CCCCC2)nc2c1c(=O)c(C(=O)NCc1ccc(-n3ccnc3)cc1)cn2CC1CCCO1 (centres undefined)
[7]
  bioavailability: 100%
Mus musculus [8]
  Activity: Non-toxic
[9]
  AUC: 1870 µM·h
Mus musculus [10]
  Activity: Non-toxic
[11]
  IC50: 2100 nM
[12]
  fraction unbound: < 0.01
[13]
  Cmax: 451 µM

## CC(=O)c1ncc([C@@H](O)[C@H](O)[C@H](O)CO)s1
Mus musculus [14]
  AUC: 2.7 µM·h
Mus musculus [15]
  F: 65%
[6]
  Papp at 20 µM: 13.9 ×10⁻⁶ cm/s
Mus musculus [3]
  Activity: 25%
[5]
  half-life: 54 min

## CCc1[nH]c(C(C)=O)nc1[C@@H](O)[C@H](O)[C@H](O)CO
[1]
  AUC(0-inf): 6.4 µM·h
[2]
  bioavailability: 17.1%
[6]
  Papp at 20 µM: 7.93 ×10⁻⁶ cm/s
Mus musculus [3]
  Activity: 8%
[4]
  clearance: 17.3 mL/min/kg
[5]
  half-life: 168 min

## CC(=O)c1nc([C@H](O)[C@@H](O)[C@@H](O)CO)c[nH]1
[1]
  AUC(0-inf): 18 µM·h
[2]
  bioavailability: 17%
[6]
  Papp at 20 µM: 13.1 ×10⁻⁶ cm/s
Mus musculus [3]
  Activity: 0%
[4]
  clearance: 6.7 mL/min/kg
[5]
  half-life: 360 min

## CCCCCCCCCCCC/C=C/C[C@@H](O)[C@H](CO)NCc1c(CO)cnc(C)c1O
[16]
  Activity: inactive
HepG2
  Activity: 275%
Mus musculus [17]
  Activity: Non-toxic
[18]
  Cmax: < 1000 nM
[19]
  AUC: < 1 µM·h

## CC(=O)N/N=C(\C)c1nc([C@@H](O)[C@H](O)[C@H](O)CO)c[nH]1
[1]
  AUC(0-inf): 3.6 µM·h
Mus musculus [20]
  Activity: -41%
[2]
  bioavailability: 5%
[6]
  Papp at 20 µM: 9 ×10⁻⁶ cm/s
[4]
  clearance: 8.9 mL/min/kg
[5]
  half-life: 156 min

## CC(=O)c1cccc([C@@H](O)[C@H](O)[C@H](O)CO)n1
[1]
  AUC(0-inf): 43.4 µM·h
[2]
  bioavailability: 88%
[6]
  Papp at 20 µM: 13.4 ×10⁻⁶ cm/s
Mus musculus [3]
  Activity: 45%
[4]
  clearance: 14 mL/min/kg
[5]
  half-life: 126 min

## CN(C)C(=O)c1nc([C@@H](O)[C@H](O)[C@H](O)CO)c[nH]1
Mus musculus [14]
  AUC: 6.7 µM·h
Mus musculus [20]
  Activity: -11%
Mus musculus [15]
  F: 5%
[6]
  Papp at 20 µM: 9.9 ×10⁻⁶ cm/s
[5]
  half-life: 240 min

## OC[C@@H](O)[C@@H](O)[C@H](O)c1c[nH]c(-c2nc[nH]n2)n1
[6]
  Papp at 20 µM: 1 ×10⁻⁶ cm/s
Mus musculus [3]
  Activity: 7%

## CC(=O)c1nc([C@@H](O)[C@H](O)[C@H](O)CO)c[nH]1
[1]
  AUC(0-inf): 35.8 µM·h
Mus musculus [21]
  fold change (FC): 22
[22]
  Cmax: 24.9 µM
Mus musculus [20]
  Activity: -25%
[23]
  Tmax: 30 min
Mus musculus [24]
  Activity: Active
[2]
  bioavailability: 14%
[6]
  Papp at 20 µM: 11 ×10⁻⁶ cm/s
[25]
  Vd: 0.067 L/kg
Mus musculus [3]
  Activity: -41%
[4]
  clearance: 2.9 mL/min/kg
[5]
  half-life: 270 min

## CC(=O)c1nc([C@@H](O)[C@@H](O)[C@H](O)CO)c[nH]1
[1]
  AUC(0-inf): 15.7 µM·h
[2]
  bioavailability: 25%
[6]
  Papp at 20 µM: 9.9 ×10⁻⁶ cm/s
Mus musculus [3]
  Activity: -31%
[4]
  clearance: 18.8 mL/min/kg
[5]
  half-life: 324 min

## OC[C@@H](O)[C@@H](O)[C@H](O)c1c[nH]c(-c2cocn2)n1
[1]
  AUC(0-inf): 3.4 µM·h
[6]
  Papp at 20 µM: 0.9 ×10⁻⁶ cm/s
Mus musculus [3]
  Activity: 1%
[4]
  clearance: 16.6 mL/min/kg
[5]
  half-life: 72 min

## CC(=O)c1nc([C@@H](O)[C@H](O)[C@H](O)C(=O)N(C)C)c[nH]1
[1]
  AUC(0-inf): 0.2 µM·h
[2]
  bioavailability: 1%
[6]
  Papp at 20 µM: 10.3 ×10⁻⁶ cm/s
Mus musculus [3]
  Activity: -15%
[4]
  clearance: 11.7 mL/min/kg
[5]
  half-life: 210 min
